Data: patent publication US20080249072A1, “Use of Low Dose Chemically Modified Tetracylines to Reduce Inflammatory Mediators” (priority 2005, published 2008)

Key:
Type in all cases: cell-based
[1] = tested on: Macrophage Chemotactic Protein-1 (MCP-1); test: MCP-1 production by human monocytes/macrophages stimulated by CRP/Oxid. LDL complex (ELISA)
Protocol: (§1) Experiments were conducted to compare the efficacy of two tetracycline compounds, doxycycline and CMT-3, on reducing the production of inflammatory mediators, TNF-α, IL-6 and MCP-1 produced by monocytes/macrophages. Doxycycline is a well known tetracycline antibiotic. CMT-3 is a non-antibacterial 4-dedimethylamino derivative of sancycline. See above. The experiments utilized a cell culture stimulated by biologic factors that cause inflammation, such as the inflammation seen in, for example, coronary and cerebro-vascular disease. Units of human blood were obtained and peripheral blood monocytes were separated by Ficoll-Hypaque gradient centrifugation. Viable human monocytes/macrophages were incubated in cell culture under standard sterile conditions on plastic in RPMI media at 37° C. for 18 hours. The monocytes/macrophages were incubated under the following experimental conditions: • (i) cells alone; • (ii) cells stimulated by c-reactive protein (CRP)/Oxidized LDL cholesterol complex (CRP/Oxid. LDL complex), no tetracycline present; • (iii) cells stimulated by CRP/Oxid. LDL complex with doxycycline at concentrations of 0.7 μg/ml, 5.0 μg/ml and 10.0 μg/ml; and. • (iv) cells stimulated by CRP/Oxid. LDL complex with CMT-3 at concentrations of 0.5 μg/ml, 1.5 μg/ml and 5.0 μg/ml. CRP/Oxid. LDL complex stimulates monocytes/macrophages to secrete excessive levels of cytokines (e.g. IL-1, IL-6, TNF-α, and MCP-1). Excessive levels of cytokines result in the rupture of atheroscleromatus plaques lining coronary and cerebral arteries causing thrombosis, heart attack and stroke. At the end of an 18 hour incubation, the conditioned media were collected and analyzed by ELISA for inflammatory mediators IL-6, TNF-α and MCP-1. The results are described in examples 1-3.

[2] = tested on: Tumor Necrosis Factor-α (TNF-α); test: TNF-α production by human monocytes/macrophages stimulated by CRP/Oxid. LDL complex (ELISA)
Protocol: as §1

Interleukin-6 (IL-6) = test: IL-6 production by human monocytes/macrophages stimulated by CRP/Oxid. LDL complex (ELISA)
Protocol: as §1

[3] = highest concentration, 5.0 μg/ml
[4] = all three concentrations tested (0.5, 1.5 and 5.0 μg/ml)

Row | SMILES | inhibition of MCP-1 production ([1]; 0.5 μg/ml) | inhibition of MCP-1 production ([1]; 1.5 μg/ml) | inhibition at 5 µg/mL ([1]; Homo sapiens, Macrophage, 5.0 μg/ml, read-out: inhibition of production (printed TNF-α, in MCP-1 example)) | reduction of TNF-α production ([2]; 10.0 μg/ml, 18 hour incubation) | inhibition at 0.7 µg/mL ([2]; Homo sapiens, 0.7 μg/ml, 18 hour incubation) | inhibition at 5 µg/mL ([2]; Homo sapiens, 5.0 μg/ml, 18 hour incubation) | MCP-1 production at 1.5 μg/ml higher than at 0.5 μg/ml ([1]; 1.5 μg/ml versus 0.5 μg/ml) | effectiveness in reducing MCP-1 among concentrations tested [1, 3] | TNF-α production at 1.5 μg/ml higher than at 0.5 μg/ml ([2]; 1.5 μg/ml versus 0.5 μg/ml) | effect on TNF-α production [2, 4] | effectiveness in reducing TNF-α among concentrations tested [2, 3] | IL-6 production at 1.5 μg/ml higher than at 0.5 μg/ml (Interleukin-6 (IL-6); 1.5 μg/ml versus 0.5 μg/ml) | effect on IL-6 production (Interleukin-6 (IL-6); [4]) | effectiveness in reducing IL-6 among concentrations tested (Interleukin-6 (IL-6); [3])
1 | C[C@H]1c2cccc(O)c2C(=O)C2=C(O)[C@]3(O)C(=O)C(C(N)=O)=C(O)[C@@H](N(C)C)[C@@H]3[C@@H](O)[C@@H]21 [doxycycline, reference compound] | did not inhibit | did not inhibit | ~68% | about 94% | ~14% | ~37% |  |  |  |  |  |  |  | 
2 | NC(=O)C1=C(O)C[C@@H]2C[C@@H]3Cc4cccc(O)c4C(=O)C3=C(O)[C@]2(O)C1=O [CMT-3, 6-demethyl-6-deoxy-4-dedimethylaminotetracycline] |  |  |  |  |  |  | 16% | most effective | about 50% | reduced TNF-α production | most effective | 43% | reduced IL-6 production | most effective
